Literature values as cited in US12138350B2, “Method of producing a extruded composition” (Cubic Pharmaceuticals Ltd., priority 2015, dated 2024).

Details: Ramukutty and Ramachandran 2014

## CC(C)Cc1ccc(C(C)C(=O)O)cc1 (racemic) [Ibuprofen, (RS)-2-(4-(2-methylpropyl)phenyl)propanoic acid]
  Temperature up to which stable: about 152 °C
